# Laboratory results: article PMC7736581, “Activation of the IRE1 RNase through remodeling of the kinase front pocket by ATP-competitive ligands” (Nature Communications, 2020)
# How the values were obtained:
# Assay in all cases: biochemical
# Set-up in all cases: Invitrogen kinase panel: Z'Lyte activity (ATP at Km) or LanthaScreen competitive ATP-site binding, percent inhibition
# Brk = target: T1, Brk (Homo sapiens, UniProt Q13882)
# T1 construct: gene PTK6
# CHK1 = target: T2, CHK1 (Homo sapiens, UniProt O14757)
# T2 construct: gene CHEK1
# T2 sequence (O14757 1-476): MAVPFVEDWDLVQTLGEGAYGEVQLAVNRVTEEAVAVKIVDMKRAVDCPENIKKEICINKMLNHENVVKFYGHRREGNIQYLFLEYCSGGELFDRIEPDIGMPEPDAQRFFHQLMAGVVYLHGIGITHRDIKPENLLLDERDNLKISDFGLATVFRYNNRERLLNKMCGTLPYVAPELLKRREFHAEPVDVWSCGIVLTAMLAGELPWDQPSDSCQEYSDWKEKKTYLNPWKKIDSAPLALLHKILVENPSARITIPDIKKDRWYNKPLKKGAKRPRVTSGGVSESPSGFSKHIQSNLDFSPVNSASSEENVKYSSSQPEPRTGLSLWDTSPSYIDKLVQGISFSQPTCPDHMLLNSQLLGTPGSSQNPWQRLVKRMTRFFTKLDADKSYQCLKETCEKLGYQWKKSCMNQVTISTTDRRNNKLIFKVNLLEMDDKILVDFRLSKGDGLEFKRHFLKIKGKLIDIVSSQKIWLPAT
# FGFR1 = FGFR1 (Homo sapiens, UniProt P11362)
# IKK_epsilon = target: T3, IKK_epsilon (Homo sapiens, UniProt Q14164)
# T3 construct: gene IKBKE
# T3 sequence (Q14164 1-716): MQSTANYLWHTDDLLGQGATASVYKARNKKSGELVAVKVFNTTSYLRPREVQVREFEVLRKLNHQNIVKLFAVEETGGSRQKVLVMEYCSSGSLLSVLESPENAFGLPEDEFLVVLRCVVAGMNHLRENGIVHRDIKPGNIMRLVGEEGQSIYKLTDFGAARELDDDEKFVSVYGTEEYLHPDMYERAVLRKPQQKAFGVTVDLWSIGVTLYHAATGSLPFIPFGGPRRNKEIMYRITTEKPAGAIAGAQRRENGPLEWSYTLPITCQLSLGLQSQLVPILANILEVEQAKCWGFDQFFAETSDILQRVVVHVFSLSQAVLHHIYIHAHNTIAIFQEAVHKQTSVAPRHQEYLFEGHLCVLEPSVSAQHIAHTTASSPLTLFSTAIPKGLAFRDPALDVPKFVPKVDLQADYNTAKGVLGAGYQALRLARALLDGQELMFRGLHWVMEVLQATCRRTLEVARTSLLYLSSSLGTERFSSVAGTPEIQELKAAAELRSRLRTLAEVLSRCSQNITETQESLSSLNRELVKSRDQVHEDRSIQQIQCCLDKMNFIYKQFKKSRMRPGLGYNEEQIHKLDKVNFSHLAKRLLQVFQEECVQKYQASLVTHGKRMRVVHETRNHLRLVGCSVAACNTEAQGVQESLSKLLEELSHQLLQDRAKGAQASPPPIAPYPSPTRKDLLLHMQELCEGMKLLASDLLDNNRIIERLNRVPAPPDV
# ITK = target: T4, ITK (Homo sapiens, UniProt Q08881)
# T4 sequence (Q08881 1-620): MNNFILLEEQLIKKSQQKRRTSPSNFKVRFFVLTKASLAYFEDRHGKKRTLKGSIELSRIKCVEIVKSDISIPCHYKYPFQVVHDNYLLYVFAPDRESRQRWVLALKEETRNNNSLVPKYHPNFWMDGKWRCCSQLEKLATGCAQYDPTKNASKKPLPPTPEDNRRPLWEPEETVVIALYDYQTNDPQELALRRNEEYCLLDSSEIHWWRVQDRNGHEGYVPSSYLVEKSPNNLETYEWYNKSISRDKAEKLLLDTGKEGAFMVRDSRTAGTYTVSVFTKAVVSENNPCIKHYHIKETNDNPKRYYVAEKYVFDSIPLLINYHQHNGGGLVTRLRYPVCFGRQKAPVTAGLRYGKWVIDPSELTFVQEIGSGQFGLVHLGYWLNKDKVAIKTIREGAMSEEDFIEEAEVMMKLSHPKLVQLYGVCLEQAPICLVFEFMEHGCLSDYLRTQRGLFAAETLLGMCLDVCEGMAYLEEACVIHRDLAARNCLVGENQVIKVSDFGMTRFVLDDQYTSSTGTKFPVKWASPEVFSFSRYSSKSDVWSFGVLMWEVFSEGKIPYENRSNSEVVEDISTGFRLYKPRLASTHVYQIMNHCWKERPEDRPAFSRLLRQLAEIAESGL
# PKC_beta1 = target: T5, PKC_beta1 (Homo sapiens, UniProt P05771)
# T5 construct: gene PRKCB; isoform beta1
# PhK_gamma1 = target: T6, PhK_gamma1 (Homo sapiens, UniProt Q16816)
# T6 construct: gene PHKG1
# T6 sequence (Q16816 whole entry): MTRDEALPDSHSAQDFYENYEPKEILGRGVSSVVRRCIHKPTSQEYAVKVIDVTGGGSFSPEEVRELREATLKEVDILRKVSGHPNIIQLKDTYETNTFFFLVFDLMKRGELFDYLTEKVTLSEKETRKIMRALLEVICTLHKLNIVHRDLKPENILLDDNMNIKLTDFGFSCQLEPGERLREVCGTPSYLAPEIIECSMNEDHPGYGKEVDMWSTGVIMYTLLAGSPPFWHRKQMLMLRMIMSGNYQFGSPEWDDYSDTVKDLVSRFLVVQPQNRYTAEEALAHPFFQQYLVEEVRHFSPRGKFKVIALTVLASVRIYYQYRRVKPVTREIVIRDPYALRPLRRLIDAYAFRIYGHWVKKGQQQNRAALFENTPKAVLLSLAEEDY
# FGFR1, sequence (P11362 whole entry): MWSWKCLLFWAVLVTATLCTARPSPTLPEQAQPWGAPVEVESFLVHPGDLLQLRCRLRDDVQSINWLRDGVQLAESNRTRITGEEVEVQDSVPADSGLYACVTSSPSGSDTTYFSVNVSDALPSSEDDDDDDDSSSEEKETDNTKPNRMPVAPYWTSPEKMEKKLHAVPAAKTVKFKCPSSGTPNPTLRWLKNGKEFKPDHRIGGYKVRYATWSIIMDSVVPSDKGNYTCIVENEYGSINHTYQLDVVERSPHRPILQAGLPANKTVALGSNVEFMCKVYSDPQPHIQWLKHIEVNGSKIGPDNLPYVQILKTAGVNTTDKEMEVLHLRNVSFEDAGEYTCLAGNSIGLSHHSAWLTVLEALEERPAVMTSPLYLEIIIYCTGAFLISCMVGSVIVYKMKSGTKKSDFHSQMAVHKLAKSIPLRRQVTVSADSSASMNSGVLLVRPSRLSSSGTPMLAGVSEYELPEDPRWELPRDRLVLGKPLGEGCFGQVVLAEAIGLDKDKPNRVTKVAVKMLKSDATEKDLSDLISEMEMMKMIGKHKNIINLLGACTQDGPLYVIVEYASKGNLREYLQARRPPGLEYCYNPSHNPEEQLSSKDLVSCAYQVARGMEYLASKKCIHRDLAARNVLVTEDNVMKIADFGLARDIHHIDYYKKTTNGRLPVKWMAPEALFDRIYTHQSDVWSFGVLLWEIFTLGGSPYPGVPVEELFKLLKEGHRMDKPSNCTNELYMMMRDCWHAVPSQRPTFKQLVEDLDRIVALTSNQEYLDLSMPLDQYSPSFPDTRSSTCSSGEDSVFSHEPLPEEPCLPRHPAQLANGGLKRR
# T1 sequence (Q13882 whole entry): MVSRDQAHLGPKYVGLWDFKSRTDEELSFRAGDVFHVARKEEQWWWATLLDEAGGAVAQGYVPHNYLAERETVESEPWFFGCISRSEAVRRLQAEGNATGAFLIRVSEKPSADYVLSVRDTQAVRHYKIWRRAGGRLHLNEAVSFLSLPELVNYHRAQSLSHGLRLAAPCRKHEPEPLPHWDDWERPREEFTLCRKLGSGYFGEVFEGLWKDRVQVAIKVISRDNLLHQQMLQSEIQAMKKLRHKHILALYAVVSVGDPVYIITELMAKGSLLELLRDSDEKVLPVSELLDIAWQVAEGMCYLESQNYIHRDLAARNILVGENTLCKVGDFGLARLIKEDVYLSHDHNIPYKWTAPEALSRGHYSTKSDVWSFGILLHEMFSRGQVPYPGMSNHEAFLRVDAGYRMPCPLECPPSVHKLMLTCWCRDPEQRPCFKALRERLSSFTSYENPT
# T5 sequence (P05771 whole entry, canonical isoform): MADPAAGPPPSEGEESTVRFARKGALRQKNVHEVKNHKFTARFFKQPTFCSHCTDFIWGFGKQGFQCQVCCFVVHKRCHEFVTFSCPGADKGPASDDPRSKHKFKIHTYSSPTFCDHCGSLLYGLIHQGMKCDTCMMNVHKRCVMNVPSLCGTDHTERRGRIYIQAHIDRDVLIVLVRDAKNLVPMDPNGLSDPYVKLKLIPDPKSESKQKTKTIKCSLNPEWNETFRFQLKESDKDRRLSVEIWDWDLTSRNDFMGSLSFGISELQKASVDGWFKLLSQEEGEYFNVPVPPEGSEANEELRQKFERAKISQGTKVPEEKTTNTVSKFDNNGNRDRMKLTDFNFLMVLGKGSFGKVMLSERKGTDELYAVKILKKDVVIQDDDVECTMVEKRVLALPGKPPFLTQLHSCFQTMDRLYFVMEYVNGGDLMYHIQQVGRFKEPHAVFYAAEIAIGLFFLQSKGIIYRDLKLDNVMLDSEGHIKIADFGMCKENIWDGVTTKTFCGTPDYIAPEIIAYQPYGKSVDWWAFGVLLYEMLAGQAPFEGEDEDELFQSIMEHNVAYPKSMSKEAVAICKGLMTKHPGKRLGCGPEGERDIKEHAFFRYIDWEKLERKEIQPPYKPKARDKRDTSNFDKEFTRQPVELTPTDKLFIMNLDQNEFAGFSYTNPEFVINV
inhibition at 1 µM (Brk) [%],inhibition at 1 µM (CHK1) [%],inhibition at 1 µM (FGFR1) [%],inhibition at 1 µM (IKK_epsilon) [%],inhibition at 1 µM (ITK) [%],inhibition at 1 µM (PKC_beta1) [%],inhibition at 1 µM (PhK_gamma1) [%],SMILES
-9,4,13,6.5,0,5.5,1,CC#CC(=O)Nc1cccc2c(Oc3ncccc3-c3ccnc(N[C@H]4CCCNC4)n3)c(C)ccc12 [G-7658]
26.8,94.8,83.8,86.5,81.3,66.7,92.2,O=c1cc(-c2n[nH]c3ncc(-c4c(F)cccc4F)cc23)nc(N2CCC(O)CC2)[nH]1 [G-9807]

SMILES,inhibition at 1 µM (Brk) [%],inhibition at 1 µM (CHK1) [%],inhibition at 1 µM (FGFR1) [%],inhibition at 1 µM (IKK_epsilon) [%],inhibition at 1 µM (ITK) [%],inhibition at 1 µM (PKC_beta1) [%],inhibition at 1 µM (PhK_gamma1) [%]
CCOC(=O)Nc1cccc2c(Oc3ncccc3-c3ccnc(N[C@H]4CCCNC4)n3)c(C)ccc12 [G-1749],1.8,7.5,14,4,5,5.5,2
